Data: US9067894B1, “Compound, composition, and method of activating GIRK potassium channel and use of same for treating conditions of interest” (Vanderbilt University, priority 2013, dated 2015)
“Also recorded” adds a separate entry of the source.

Columns and labels:
N-Type Ca channel = molecular target: T1, N-Type Ca channel (Rattus norvegicus, UniProt Q02294); assay: Radioligand displacement (Ricerca); assay type: binding
T1 construct: Ricerca

GIRK1/4 = molecular target: T2, GIRK1/4 (Homo sapiens, UniProt P48544+P48549); assay: Thallium flux assay, HEK-293 cells expressing GIRK1/4; assay type: cell-based; settings: cell line GIRK1-4; average ± SEM
T2 construct: expressed in transfected cells; host or cells: HEK-293
T2 sequence (P48549 1-501): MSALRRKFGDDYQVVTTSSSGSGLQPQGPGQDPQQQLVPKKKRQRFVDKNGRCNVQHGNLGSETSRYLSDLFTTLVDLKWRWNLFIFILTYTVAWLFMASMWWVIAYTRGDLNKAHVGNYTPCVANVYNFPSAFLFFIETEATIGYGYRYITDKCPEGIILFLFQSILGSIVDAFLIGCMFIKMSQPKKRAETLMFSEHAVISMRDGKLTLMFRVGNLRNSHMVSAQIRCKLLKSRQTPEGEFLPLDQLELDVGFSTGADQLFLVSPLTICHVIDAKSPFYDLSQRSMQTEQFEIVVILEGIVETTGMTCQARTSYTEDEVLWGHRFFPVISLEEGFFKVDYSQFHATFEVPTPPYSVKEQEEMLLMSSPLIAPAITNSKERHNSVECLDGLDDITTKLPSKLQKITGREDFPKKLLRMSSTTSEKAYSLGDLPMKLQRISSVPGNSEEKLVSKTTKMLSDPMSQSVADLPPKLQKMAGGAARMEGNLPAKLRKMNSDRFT
T2 sequence (P48544 1-419): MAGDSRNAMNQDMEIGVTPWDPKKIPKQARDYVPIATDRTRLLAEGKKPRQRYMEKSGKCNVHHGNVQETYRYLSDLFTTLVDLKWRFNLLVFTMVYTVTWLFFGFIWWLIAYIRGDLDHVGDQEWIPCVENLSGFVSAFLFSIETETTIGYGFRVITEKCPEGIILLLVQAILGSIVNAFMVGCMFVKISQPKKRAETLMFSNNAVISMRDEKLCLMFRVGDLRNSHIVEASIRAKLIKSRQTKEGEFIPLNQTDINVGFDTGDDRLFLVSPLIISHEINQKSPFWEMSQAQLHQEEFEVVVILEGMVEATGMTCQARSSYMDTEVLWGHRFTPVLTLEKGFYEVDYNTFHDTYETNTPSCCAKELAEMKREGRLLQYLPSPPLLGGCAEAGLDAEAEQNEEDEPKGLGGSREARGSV
Description: Cell Line Construction and Cell Culture. HEK-293 cells co-expressing human GIRK1/2 and rat mGlu8 were generated as previously described (Niswender et al., 2008). A HEK-293 cell line (ATCC, Manassas, Va.) expressing human GIRK1 and human GIRK2 was constructed by transfecting HEK-293 cells with GIRK1 and GIRK2 (Origene, Rockville, Md.) cloned into the pBudCE4.1 vector (Life Technologies, Carlsbad, Calif.) using FuGene 6 (Promega, Madison, Wis.) transfection reagent. Unless otherwise noted, other ion channel-expressing cells were prepared by transfecting HEK-293 cells with individual or combinations of subunits: GIRK1, pCMV6-A-BSD; GIRK2, pCMV6-A-puro; GIRK3, pCMV6-A-hygro; GIRK4, pCMV6-A-AC; Kv7.4, pIRESneo3. The Kir2.1 and hERG-expressing cell lines were made by transfecting T-REx-293 cells (Life Technologies, Carlsbad, Calif.) with Kir2.1 and Kv11.1, respectively, cloned into pcDNA5TO. Monoclonal cell lines were produced by limiting-dilution cloning of antibiotic-resistant cells and functional selection using the thallium flux assay described below. Unless otherwise noted, cells were maintained in Minimal Essential Medium, Alpha Medium (Mediatech, Manassas, Va.) supplemented with 10% fetal bovine serum (Sigma-Aldrich, Saint Louis, Mo.) and GlutaGro (Mediatech, Manassas, Va.), referred to henceforth as cell culture medium. […]

[1] = Home cage locomotor activity (SmartCage); assay type: in vivo, mouse; settings: mice, 60 mg/kg i.p., 24 hours after injection
Experimental: The SmartCageTM system ([…], Inc., Burlingame, Calif.) was used to assess compound effects on spontaneous homecage activity. Automated data analysis was performed using CageScoreTM software ([…], Inc.). The home cage activity was determined by beam breaks (x, y, and z photo-beam break counts). Distance traveled in centimeters was obtained from the lower horizontal sensors (x and y) taking into account the path taken. Average velocity was distance traveled/second in the forward direction, averaged over the block time (bin). Mice (male C57/BL6, 8-10 months old, approximately 30 g) mice were assessed continuously for 72 hours. The first 24 hours was used as a habituation period. The locomotion data obtained from the second 24 hours served as the baseline data for each mouse. […] After receiving their respective treatments, each mouse's locomotor activity was monitored over the 24 hours to assess recovery from drug effects.

T1 sequence (Q02294 whole entry): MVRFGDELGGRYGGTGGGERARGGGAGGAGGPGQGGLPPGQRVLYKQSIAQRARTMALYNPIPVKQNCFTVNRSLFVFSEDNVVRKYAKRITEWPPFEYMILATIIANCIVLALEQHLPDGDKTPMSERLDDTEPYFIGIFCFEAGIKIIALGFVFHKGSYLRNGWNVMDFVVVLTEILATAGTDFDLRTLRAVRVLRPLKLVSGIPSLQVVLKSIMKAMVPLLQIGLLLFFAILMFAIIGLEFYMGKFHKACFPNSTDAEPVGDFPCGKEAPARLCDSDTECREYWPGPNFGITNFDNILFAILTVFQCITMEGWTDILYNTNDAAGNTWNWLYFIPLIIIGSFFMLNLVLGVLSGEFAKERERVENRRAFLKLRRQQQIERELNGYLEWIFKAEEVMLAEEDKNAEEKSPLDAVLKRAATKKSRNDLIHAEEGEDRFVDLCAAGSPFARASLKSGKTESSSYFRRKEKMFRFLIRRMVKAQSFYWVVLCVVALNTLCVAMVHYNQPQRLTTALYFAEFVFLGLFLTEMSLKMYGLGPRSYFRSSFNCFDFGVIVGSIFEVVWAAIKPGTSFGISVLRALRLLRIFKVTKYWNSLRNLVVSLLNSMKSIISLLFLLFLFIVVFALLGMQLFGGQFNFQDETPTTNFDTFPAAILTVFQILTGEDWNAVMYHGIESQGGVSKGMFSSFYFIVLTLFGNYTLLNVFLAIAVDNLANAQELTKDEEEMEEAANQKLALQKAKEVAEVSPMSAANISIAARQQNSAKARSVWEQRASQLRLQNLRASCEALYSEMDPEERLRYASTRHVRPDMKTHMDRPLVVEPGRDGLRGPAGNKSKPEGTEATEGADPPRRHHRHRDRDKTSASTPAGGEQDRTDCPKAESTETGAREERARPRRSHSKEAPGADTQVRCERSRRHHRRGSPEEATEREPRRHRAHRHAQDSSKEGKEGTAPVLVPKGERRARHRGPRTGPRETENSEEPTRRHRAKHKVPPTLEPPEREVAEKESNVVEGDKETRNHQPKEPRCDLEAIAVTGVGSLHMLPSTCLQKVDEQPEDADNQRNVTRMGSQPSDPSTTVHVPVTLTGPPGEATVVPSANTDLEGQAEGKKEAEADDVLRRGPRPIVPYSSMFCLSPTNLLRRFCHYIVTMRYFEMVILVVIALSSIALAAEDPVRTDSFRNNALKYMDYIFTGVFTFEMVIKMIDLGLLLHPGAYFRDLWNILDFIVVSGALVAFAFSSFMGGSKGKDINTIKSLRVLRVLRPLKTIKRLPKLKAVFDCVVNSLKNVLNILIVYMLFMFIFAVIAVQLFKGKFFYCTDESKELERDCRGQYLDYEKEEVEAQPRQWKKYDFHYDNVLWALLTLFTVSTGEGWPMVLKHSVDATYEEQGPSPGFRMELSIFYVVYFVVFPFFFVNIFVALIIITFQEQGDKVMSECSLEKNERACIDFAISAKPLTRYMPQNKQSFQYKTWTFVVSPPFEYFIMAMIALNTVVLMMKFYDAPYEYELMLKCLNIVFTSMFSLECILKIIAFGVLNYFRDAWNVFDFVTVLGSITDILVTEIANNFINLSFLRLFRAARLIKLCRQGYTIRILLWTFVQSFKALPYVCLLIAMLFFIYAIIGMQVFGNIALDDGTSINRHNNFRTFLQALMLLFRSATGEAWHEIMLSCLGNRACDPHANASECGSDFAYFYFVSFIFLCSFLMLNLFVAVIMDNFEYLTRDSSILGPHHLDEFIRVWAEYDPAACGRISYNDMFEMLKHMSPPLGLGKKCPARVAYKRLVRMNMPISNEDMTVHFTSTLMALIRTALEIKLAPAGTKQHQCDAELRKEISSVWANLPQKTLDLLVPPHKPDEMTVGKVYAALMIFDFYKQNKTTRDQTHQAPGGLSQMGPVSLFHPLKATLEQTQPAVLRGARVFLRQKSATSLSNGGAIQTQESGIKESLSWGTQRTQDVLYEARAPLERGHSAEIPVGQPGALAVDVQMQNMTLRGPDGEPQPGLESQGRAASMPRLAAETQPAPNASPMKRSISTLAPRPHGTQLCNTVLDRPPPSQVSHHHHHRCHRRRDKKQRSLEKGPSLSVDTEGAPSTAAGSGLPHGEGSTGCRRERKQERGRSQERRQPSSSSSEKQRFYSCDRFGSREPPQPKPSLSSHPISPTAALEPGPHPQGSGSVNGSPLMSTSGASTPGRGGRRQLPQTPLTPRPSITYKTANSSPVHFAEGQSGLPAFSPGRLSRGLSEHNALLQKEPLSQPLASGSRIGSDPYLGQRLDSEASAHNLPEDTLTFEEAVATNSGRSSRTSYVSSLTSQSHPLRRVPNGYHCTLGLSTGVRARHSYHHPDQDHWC

With Cc1cc(NC(=O)Nc2ccc(F)c(F)c2)n(-c2ccccc2)n1 [VU0456810, 1-(3,4-difluorophenyl)-3-(3-methyl-1-phenyl-1H-pyrazol-5-yl)urea] the inhibition at 10 µM (N-Type Ca channel) was 5%, the EC50 (GIRK1/4) was 887 ± 266 nM and the “EC50 Thallium Flux” value (GIRK1/4) was “able to activate”. The “locomotor activity in home cage vs vehicle” value [1] was “overall decrease in locomotor activity; also recorded: decreased”.
